According to ChEMBL document CHEMBL4765401, “Synthesis, and biological evaluation of 3,6-diaryl-[1,2,4]triazolo[4,3-a]pyridine analogues as new potent tubulin polymerization inhibitors” (Eur J Med Chem, 2020):
Activity calls are given as the source filed them. The calls are words filed in the database; no cut-off is given here.

Experiments:
[1] = tested on: HeLa; experiment: Antiproliferative activity against human HeLa cells measured after 48 hrs by MTT assay; type: functional, cell-based
[2] = tested on: HEK293; experiment: Cytotoxicity against HEK293 cells measured after 48 hrs by MTT assay; type: cell-based; conditions: Homo sapiens, HEK293, 48 h
[3] = species on record: Sus scrofa; experiment: Inhibition of pig brain tubulin polymerization at 10 uM measured at 1 min interval for 20 mins by spectrophotometric method relative to control
[4] = tested on: MCF7; experiment: Antiproliferative activity against human MCF7 cells measured after 48 hrs by MTT assay; type: functional, cell-based; conditions: MCF7, 48 h
[5] = tested on: T47D; experiment: Antiproliferative activity against human T47D cells measured after 48 hrs by MTT assay; type: functional, cell-based
[6] = tested on: A549; experiment: Antiproliferative activity against human A549 cells measured after 48 hrs by MTT assay; type: functional, cell-based; conditions: A549, 48 h
[7] = Inhibition of pig brain tubulin polymerization measured at 1 min interval for 20 mins by spectrophotometric method; set-up: species or system Sus scrofa
[8] = tested on: HeLa; experiment: Induction of microtubule disruption in human HeLa cells at 12 nM measured after 6 hrs by DAPI staining based immunofluorescence microscopy; type: cell-based

Row | Structure (SMILES) | IC50 [1] [µM] | inhibition [3] [%] | IC50 [4] [µM] | IC50 [5] [µM] | IC50 [6] [µM] | IC50 [7] [µM] | IC50 [2] [µM] | Activity [8]
1 | COc1cc(-c2nnc3ccc(-c4ccc5ccccc5c4)cn23)cc(OC)c1OC | > 25 |  |  |  |  |  |  | 
2 | COc1cc(C2=NC3=NC(C)=C(C(C)=O)C(c4ccc([N+](=O)[O-])cc4)N3N2)cc(OC)c1OC (stereo unspecified) | 0.75 |  |  |  |  |  | 29.9 | 
3 | COc1cc(F)ccc1-c1ccc2nnc(-c3cc(OC)c(OC)c(OC)c3)n2c1 | 0.153 |  |  |  |  |  |  | 
4 | COc1ccccc1-c1ccc2nnc(-c3cc(OC)c(OC)c(OC)c3)n2c1 | 0.084 | 16 | 13.7 | 31.5 | 9.28 |  | > 100 | 
5 | COc1ccc(-c2ccc3nnc(-c4cc(OC)c(OC)c(OC)c4)n3c2)cc1OC | 0.119 | 68 | > 100 | > 100 | 87.1 | 11.3 |  | 
6 | COc1ccc(-c2ccc3nnc(-c4cc(OC)c(OC)c(OC)c4)n3c2)c(OC)c1 | 7.9 |  |  |  |  |  |  | 
7 | COc1ccc(F)cc1-c1ccc2nnc(-c3cc(OC)c(OC)c(OC)c3)n2c1 | 0.651 |  |  |  |  |  |  | 
8 | COc1cc(-c2nnc3ccc(-c4ccccc4OC(F)(F)F)cn23)cc(OC)c1OC | 22.2 |  |  |  |  |  |  | 
9 | COc1ccc(/C=C\c2cc(OC)c(OC)c(OC)c2)cc1O [COMBRETASTATIN A4] | 0.0047 | 79 | 0.17 |  |  |  |  | Active

The next lines start with results.

Row | IC50 [1] [µM] | inhibition [3] [%] | IC50 [4] [µM] | IC50 [5] [µM] | IC50 [6] [µM] | IC50 [7] [µM] | Structure (SMILES) | IC50 [2] [µM] | Activity [8]
10 | > 25 |  |  |  |  |  | COc1ccc(-c2nnc3ccc(-c4cc(OC)c(OC)c(OC)c4)cn23)cc1 |  | 
11 | 0.045 | 14 | > 100 | > 100 | 17.8 |  | COc1ccc(-c2ccc3nnc(-c4cc(OC)c(OC)c(OC)c4)n3c2)cc1O | > 100 | 
12 | 0.034 | 77 | > 100 | > 100 | 6.26 | 4.1 | COc1cc(-c2nnc3ccc(-c4ccc(C)cc4)cn23)cc(OC)c1OC | > 100 | 
13 | 0.065 |  |  |  |  |  | COc1cc(-c2nnc3ccc(-c4ccc(Cl)cc4)cn23)cc(OC)c1OC | > 100 | 
14 | 0.194 |  |  |  |  |  | COc1ccc(-c2ccc3nnc(-c4cc(OC)c(OC)c(OC)c4)n3c2)cc1 |  | 
15 | 0.025 | 18 | > 100 | 76 | 78.6 |  | COc1cc(-c2nnc3ccc(-c4ccc(F)cc4)cn23)cc(OC)c1OC | > 100 | 
